Experiments:
human 15-LO = target: T1, human 15-LO (Homo sapiens, UniProt P16050); assay: 15-LO inhibition, human enzyme; assay type: biochemical; details: linoleic acid as substrate
T1 sequence (P16050 1-662): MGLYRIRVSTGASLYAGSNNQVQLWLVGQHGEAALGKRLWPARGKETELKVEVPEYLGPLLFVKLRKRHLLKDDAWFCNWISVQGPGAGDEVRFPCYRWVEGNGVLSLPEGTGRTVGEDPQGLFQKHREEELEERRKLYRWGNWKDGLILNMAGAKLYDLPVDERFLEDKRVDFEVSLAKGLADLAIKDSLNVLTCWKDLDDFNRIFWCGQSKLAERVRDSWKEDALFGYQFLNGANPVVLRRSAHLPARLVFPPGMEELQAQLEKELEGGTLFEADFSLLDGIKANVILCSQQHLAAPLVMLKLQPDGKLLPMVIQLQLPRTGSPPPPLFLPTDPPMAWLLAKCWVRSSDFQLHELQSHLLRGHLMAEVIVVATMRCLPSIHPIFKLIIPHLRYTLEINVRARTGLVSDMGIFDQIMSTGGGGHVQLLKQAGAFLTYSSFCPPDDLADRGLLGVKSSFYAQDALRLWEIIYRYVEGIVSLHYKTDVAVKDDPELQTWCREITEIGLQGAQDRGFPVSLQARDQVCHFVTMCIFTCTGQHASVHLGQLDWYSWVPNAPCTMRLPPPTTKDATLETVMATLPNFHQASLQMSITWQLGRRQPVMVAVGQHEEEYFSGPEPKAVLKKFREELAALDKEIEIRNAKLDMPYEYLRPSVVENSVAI
Description: (§1) The compounds described above are effective inhibitors of 15-LO when evaluated in standard assays routinely utilized to measure 15-LO activity. Specifically, representative compounds were evaluated by the methods described by Auerbach et al., Analytical Biochemistry, 1992;201:375-380. Two in vitro assays were utilized, one utilizing rabbit reticulocyte 15-LO, the other using human 15-LO. Both used linoleic acid as substrate, to enzymatically produce a peroxide oxidation product known as 13(S)-HPODE. N-Benzoyl leucomethylene blue was utilized as a colorimetric reagent for detection and quantification of the peroxide formation. Also, HPLC was utilized to quantify the oxidation following incubation at 4° C. for 10 minutes.
(§2) Data Column 1 gives the concentration of compound required to inhibit 50% of the activity of 15-LO (IC50) when measured by the HPLC method of Auerbach et al. using rabbit enzymes, and data Column 2 gives data from human 15-LO enzyme.

[1] = target: T2, rabbit reticulocyte 15-LO (Oryctolagus cuniculus, UniProt P12530); assay: 15-LO inhibition, rabbit reticulocyte enzyme (HPLC method of Auerbach et al.); assay type: biochemical; details: linoleic acid as substrate, incubation at 4° C. for 10 minutes
T2 construct: one utilizing rabbit reticulocyte 15-LO; from tissue; host or cells: rabbit reticulocytes
T2 sequence (P12530 1-663): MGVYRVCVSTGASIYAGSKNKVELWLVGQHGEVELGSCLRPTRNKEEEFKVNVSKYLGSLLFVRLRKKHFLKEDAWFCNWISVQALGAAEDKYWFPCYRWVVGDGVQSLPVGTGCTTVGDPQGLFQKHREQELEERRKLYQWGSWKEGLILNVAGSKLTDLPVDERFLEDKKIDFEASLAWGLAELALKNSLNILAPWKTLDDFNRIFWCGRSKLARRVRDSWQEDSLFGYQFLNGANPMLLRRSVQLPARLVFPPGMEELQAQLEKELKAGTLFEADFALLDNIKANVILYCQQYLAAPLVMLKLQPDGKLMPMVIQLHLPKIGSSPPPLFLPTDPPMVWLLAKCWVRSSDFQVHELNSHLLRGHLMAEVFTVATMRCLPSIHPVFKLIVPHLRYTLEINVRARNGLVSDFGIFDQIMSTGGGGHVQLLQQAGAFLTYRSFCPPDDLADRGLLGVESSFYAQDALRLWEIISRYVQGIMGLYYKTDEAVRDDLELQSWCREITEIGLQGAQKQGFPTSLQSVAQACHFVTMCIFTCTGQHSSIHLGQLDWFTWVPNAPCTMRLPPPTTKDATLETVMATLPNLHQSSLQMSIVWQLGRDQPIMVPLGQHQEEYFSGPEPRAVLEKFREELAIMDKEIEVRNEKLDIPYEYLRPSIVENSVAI
Description: as §1, §2

melting point: 158 to 159 °C
IC50 (human 15-LO): 116 nM
IC50 [1]: 74 nM
Structure (SMILES): COc1ccc(-c2cc3cc(F)c(F)cc3[nH]2)cc1NCc1ccc(C#N)cc1 [Example 50, [5-(5,6-Difluoro-1H-indol-2-yl)-2-methoxy-phenyl]-(4-cyano-benzyl)-amine]

— patent US6858739B2, “Indole and benzimidazole 15-lipoxygenase inhibitors” (Warner-Lambert Company, priority 2000, dated 2005)
